Experimental data taken from patent publication US20190083420A1, “METHODS OF USING (2R, 6R)-HYDROXYN[…] (2S, 6S)-HYDROXYN[…] THE TREATMENT OF DEPRESSION, ANXIETY, ANHEDONIA, FATIGUE, SUICIDAL IDEATION, AND POST TRAUMATIC STRESS DISORDERS” (The Uinited States of America, as represented by the …, priority 2016, published 2019).
“Also recorded” adds a separate entry of the source.

Legend:
male CD-1 mice [1] = experiment: Forced-swim test (FST); format: in vivo; settings: for antidepressant effect in the FST (immobility time): i.p.
Text: (§1) Male CD-1 mice (8-10 weeks old, Charles River Laboratories, Mass., USA) were housed in groups of four-five per cage with a constant 12-hour light/dark cycle (lights on/off at 07:00/19:00). Food and water were available ad libitum. Mice acclimatized to the new environment for seven days prior to the start of the experiments. For the whole-cell NMDA current electrophysiological recordings, male Sprague-Dawley rats (housed three per cage; Charles River, Wilmington, Mass.) were used. EPSC recording were done from rats at postnatal day 24-25. All experimental procedures were approved by the University of Maryland, Baltimore Animal Care and Use Committee and were conducted in full accordance with the National Institutes of Health Guide for the Care and Use of Laboratory Animals.
Mice were tested in the FST 1 hour and/or 24 hours post-injection. During the FST, mice were subjected to a 6-min swim session in clear Plexiglass cylinders (30 cm height×20 cm diameter) filled with 15 cm of water (23±1° C.). The FST was performed in normal light conditions (800 Lux). Sessions were recorded using a digital video-camera. Immobility time, defined as passive floating with no additional activity other than that necessary to keep the animal's head above water, was scored for the last 4 min of the 6-min test by a trained observer blind to the treatment.
All drugs were dissolved in 0.9% saline, and administered intraperitoneally (i.p.) in a volume of 7.5 ml/kg of body mass. Corticosterone (4-pregnen-11β, 21-diol-3, 20-dione 21-hemisuccinate; Steraloids, Newport, R.I., USA) was dissolved in tap water. For the electrophysiology recordings, test drugs were diluted in artificial cerebrospinal fluid (AC SF).

[2] = Tissue distribution of ketamine and metabolites (plasma and brain levels)
Experimental: Mice were euthanized by a 30-sec exposure to 3% isoflurane and decapitated at 10, 30, 60, 240 or 480 minutes following drug administration. Trunk blood was collected in EDTA-containing tubes and centrifuged at 8000 rpm for 6 min (4° C.). Plasma was collected and stored at −80° C. until analysis. Whole brains were simultaneously collected, rinsed with phosphate-buffered saline, immediately frozen in dry ice and stored at −80° C. until analysis.
The concentrations of ketamine and its metabolites in plasma and brain tissue were determined by achiral liquid chromatography-tandem mass spectrometry. For plasma samples, the calibration standards for (R,S)-ketamine, (R,S)-norketamine, (2R,6R;2S,6S)-HNK and (R,S)-DHNK ranged from 10,000 ng/ml to 19 ng/ml. The quantification of (R,S)-ketamine, (R,S)-norketamine, (R,S)-DHNK, and the HNK stereoisomers was accomplished by calculating area ratios using D4-ketamine (10 μl of 10 μg/ml solution) as the internal standard. Whole brains were suspended in 990 μl of water:methanol (3:2, v/v), D4-ketamine (10 μl of 10 μg/ml) added and the resulting mixture homogenized on ice with a polytron homogenizer and centrifuged at 21,000×g for 30 min. The supernatant was collected and processed using 1 ml Oasis HLB solid phase extraction cartridges (Waters Corp., Waltham, Mass.). The cartridges were preconditioned with 1 ml of methanol, followed by 1 ml of water and then 1 ml ammonium acetate [10 mM, pH 9.5]. The supernatants were added to the cartridges, followed by 1 ml of water and the compounds were eluted with 1 ml of methanol. The eluent was transferred to an autosampler vial for analysis. QC standards for the analysis of (R,S)-ketamine, (R,S)-norketamine, (R,S)-DHNK and (2R,6R;2S,6S)-HNK ranged from 10,000 ng/ml to 19 ng/ml, and quantification was accomplished using D4-(R,S)-ketamine as the internal standard. QC standards were prepared daily by adding 10 μl of the appropriate standard solution and 10 μl of internal standard solution (100 ng/ml) to methanol.

male CD-1 mice [3] = experiment: Learned helplessness (LH); format: in vivo; settings: single injection, test 24 hours after administration
Text: as §1
The LH paradigm consisted of three different phases, i.e., inescapable shock training, LH screening, and the LH test. For the inescapable shock portion of the test (Day 1), the animals were placed in one side of two-chambered shuttle boxes (34 cm height×37 cm width×18 cm depth; Coulbourn Instruments, PA, USA), with the door between the chambers closed. Following a five-min adaptation period, 120 inescapable foot-shocks (0.45 mA, 15 sec duration, randomized average inter-shock interval of 45 sec) were delivered through the grid floor. During the screening session (Day 2), the mice were placed in one of the two chambers of the apparatus for 5 min. A shock (0.45 mA) was then delivered, and the door between the two chambers was raised simultaneously. Crossing over into the second chamber terminated the shock. […] A total of 30 screening trials of escapable shocks were presented to each mouse with an average of 30 sec delay between each trial. Mice that developed helplessness behavior (>5 escape failures during the last 10 screening shocks) were administered with the respective drug 24 hours following screening (Day 3). During the LH test phase (Day 4), the animals were placed in the shuttle boxes and, after a 5-min adaptation period, a 0.45 mA shock was delivered concomitantly with door opening for the first five trials, followed by a 2-sec delay for the next 40 trials. Crossing over to the second chamber terminated the shock. […] A total of 45 trials of escapable shock were presented to each mouse with 30 sec inter-trial intervals. The number of escape failures was recorded for each mouse.

mice [4] = experiment: Open field test (locomotor activity); format: in vivo; settings: 1 hour after i.p. drug, Hydrochloride
Experimental: Mice were placed into individual open-field arenas (50 cm length×50 cm width×38 cm height; San Diego Instruments, San Diego, Calif., USA) for a 60-min habituation period. Mice were then injected with the respective drug and assessed for locomotor activity for another 60 min. Distance travelled was analyzed using TopScan v2.0 (CleverSys, Inc, Reston, Va., USA).

Male C57BL/6J mice = experiment: Chronic social defeat stress and social interaction/avoidance test; format: in vivo; settings: single i.p. injection, re-test 24 hours following treatment
Experimental: Male C57BL/6J mice underwent a 10-day chronic social defeat stress paradigm. Briefly, experimental mice were introduced to the home cage (43 cm length×11 cm width×20 cm height) of a resident aggressive retired CD-1 breeder, prescreened for aggressive behaviors, for 10 min. Following this physical attack phase, mice were transferred and housed in the opposite side of the resident's cage divided by a Plexiglas perforated divider, in order to maintain continuous sensory contact. This process was repeated for 10 days. Experimental mice were introduced to a novel aggressive CD-1 mouse each day. On day 11, test mice were screened for susceptibility in a social interaction/avoidance choice test. The social interaction apparatus consisted of a rectangular three-chambered box (mouse conditioned-place preference chamber; Stoelting Co., Wood Dale, Ill., USA), see FIG. 7b) comprised of two equal sized end-chambers and a smaller central chamber. The social interaction/avoidance choice test consisted of two 5-min phases. During the habituation phase, mice explored the empty apparatus. During the test phase, two small wire cages (Galaxy Cup, Spectrum Diversified Designs, Inc., Streetsboro, Ohio, USA), one containing a “stranger” CD-1 mouse and the other one empty, were placed in the far corners of each chamber. The time spent interacting (nose within close proximity of the cage) with the “stranger” mouse versus the empty cage was analysed using TopScan video tracking software (CleverSys, Reston, Va.). Locomotor activity (total distance moved over 5 min) and number of total crosses into and out of the central chamber were also measured. The social interaction ratio was calculated by dividing the time spent interacting with the “stranger” by the time spent with the empty cage. Mice having a social interaction ratio higher than 1.0 were considered resilient and mice with a social interaction ratio lower than 1.0 were considered susceptible. On day 13 resilient and susceptible mice received an i.p. injection of either saline, (R,S)-KET (20 mg/kg; chosen based upon dose previously effective in C57BL/6J mice^31), MK-801 (0.1 mg/kg) or (2R,6R)-HNK (20 mg/kg). Mice were re-tested for social interaction/avoidance on […] (24 hours following treatment).

mice [5] = experiment: Quantitative EEG, cortical oscillation power; format: in vivo; settings: NBQX before (2R,6R)-HNK
Experimental: EEG experiments were performed according to Raver et al., (Neuropsychopharmacology, 38, 2338-2347 (2013)) with minor modifications. Mice were anesthetized with isoflurane and kept under anesthesia throughout the surgery. An F20-EET radio-telemetric transmitter (Data Sciences International, Minneapolis, Minn.) was implanted subcutaneously and its leads implanted over the dura above the frontal cortex (1.7 mm anterior to bregma) and the cerebellum (6.4 mm posterior to bregma). Animals recovered from surgery for 7 days before recordings.
Mice were singly housed and acclimated to the behavioral room for 24 hours prior to EEG recordings. EEGs were recorded using the Dataquest A.R.T. acquisition system (Data Sciences International) with frontal EEG recordings referenced to the cerebellum. Baseline EEG (10 min) recordings were followed by an i.p. injection of saline, ketamine (10 mg/kg) or (2R,6R)-HNK (10 mg/kg) and 40 min of post-injection recordings.
ECoGs were analyzed using custom-written MATLAB scripts (Version 2012a, Mathworks, Mass.) and the mtspecgramc routine in the Chronux Toolbox (http://chronux.org; Mitra and Bokil, 2008). Oscillation power in each bandwidth (δ=1-3 Hz; θ=4-7 Hz; α=8-12 Hz; β=13-29 Hz; γ=30-80 Hz) was computed in 10 min bins from spectrograms for each animal.

mice [6] = experiment: Drug discrimination in ketamine-trained mice; format: in vivo; settings: for ketamine-associated discriminative stimulus: mice trained to discriminate ketamine (10 mg/kg) from saline
Experimental: Mice were food restricted until they reached 85% of their initial body weight and were maintained at 85% throughout the duration of the experiment Animals were trained to lever press for food (20 mg sucrose pellets; TestDiet, St. Luis, Mo., USA) in standard two lever-operant conditioning chambers (Coulbourn Instruments, Whitehall, Pa., USA), under a fixed-ratio 5 of reinforcement (FR5) in daily 30-min sessions. When stable responding was succeeded over 3 consecutive sessions (average of 40 training sessions), mice were trained to discriminate ketamine (10 mg/kg) from saline (7.5 ml/kg) under a double alternation schedule (e.g., ketamine, ketamine, saline, saline). The subjects received either ketamine (10 mg/kg; i.p.) or saline (7.5 ml/kg) 15 minutes prior to the start of the 30-minute session. […] Drug discrimination test sessions were conducted when mice reached the following criteria: (1) first FR5 completed on the correct lever, and (2)≥85% correct lever responding over the entire session. During the test sessions mice were administered with saline (7.5 ml/kg), ketamine (10 mg/kg), phencyclidine (PCP; 3 mg/kg) or (2R,6R)-HNK (10 and 50 mg/kg). […] Recording of responses and pellet delivery were controlled and calculated by an automated computer system (Graphic State v3.1; Coulbourn Instruments, Whitehall, Pa., USA).

[7] = 24 hours post-injection (sustained)

For CNCCCN1c2ccccc2CCc2ccccc21 [desipramine], the “antidepressant effect in the FST (immobility time)” value (shortened to “antidepressant effect in the FST”) (male CD-1 mice [1]; 1- and 24-hours post-injection, times not separated) was “only decreased immobility time 1 hour post-injection”.

In the case of NC1(c2ccccc2Cl)CCCCC1=O (racemic) [norketamine, (R,S)-norketamine], the “brain levels following ketamine administration, female mice compared to males” value ([2]; brain) is reported as “equivalent levels”.

In the case of Cl.[2H]C1([2H])CCCC(NC)(c2ccccc2Cl)C1=O (centres unmarked) [6,6-dideuteroketamine, 2-(2-Chlorophenyl)-6,6-Dideutero-2-(Methylamino)Cyclohexanone Hydrochloride], the “levels of ketamine in the brain” value ([2]; 6,6-dideuteroketamine compared to ketamine) is reported as “without changes to the levels of ketamine in the brain”, the “antidepressant-like effect in learned helplessness (escape failures)” value (male CD-1 mice [3]) is reported as “did not induce antidepressant actions” and the “locomotor activity in the open-field test” value (mice [4]) is reported as “did not change or NMDA-mediated hyperlocomotion”. For the same compound, the “locomotor activity in the open-field test” value (mice [4]; listed as (R,S)-6,6-dideuteroketamine) was “equally potent in inducing a hyper-locomotor response” and the “antidepressant effect in the FST” value (male CD-1 mice [1]; [7]) was “did not induce antidepressant actions”.

In the case of C[C@]12N[C@H](Cc3ccccc31)c1ccccc12 [MK-801], the “reversal of social interaction deficits / social avoidance induced by chronic social defeat stress” value (Male C57BL/6J mice) is reported as “does not exert sustained (24-hour) antidepressant-like effects in the FST, or reverse social interaction deficits”, the “antidepressant effect in the FST” value (male CD-1 mice [1]; 1 hour post-injection (acute)) is reported as “antidepressant responses of both ketamine and MK-801 observed acutely” and the “antidepressant effect in the FST” value (male CD-1 mice [1]; [7]) is reported as “does not exert sustained (24-hour) antidepressant-like effects”.

For NS(=O)(=O)c1cccc2c1c([N+](=O)[O-])cc1[nH]c(=O)c(=O)[nH]c12 [NBQX, 2,3-dihydroxy-6-nitro-7-sulfamoyl-benzo[f]quinoxaline-2,3-dione], the “effect of NBQX pre-treatment on (2R,6R)-HNK-induced increases in gamma oscillations” value (mice [5]) was “prevented (2R,6R)-HNK-induced increases in gamma power; also recorded: prevented (2R,6R)-HNK-induced increases of gamma oscillations”, the “effect of NBQX pre-treatment on locomotor activity and alpha, beta, delta, theta oscillations” value (mice [5]) was “did not change” and the “effect of NBQX pre-treatment on antidepressant-like actions in the FST” value (male CD-1 mice [1]; NBQX 10 minutes prior to (R,S)-ketamine or (2R,6R)-HNK, FST 1 hour or 24 hours later) was “prevented their antidepressant-like actions; also recorded: prevented both the 1- and 24-hour antidepressant effects of (2R,6R)-HNK”. For the same compound, the “effect of NBQX given before the 24-hour FST on antidepressant effects” value (male CD-1 mice [1]; NBQX 30 min prior to the 24-hour FST (23.5 hours after ketamine or (2R,6R)-HNK)) was “prevented the antidepressant actions of both ketamine and (2R,6R)-HNK; also recorded: prevented the antidepressant effects of both (R,S)-KET and (2R,6R)-HNK”.

For c1ccc(C2(N3CCCCC3)CCCCC2)cc1 [phencyclidine, reference compound], the “response rate of overall lever pressing per sec” value (mice [6]; drug discrimination paradigm) was “not changed”, the ketamine-associated discriminative stimulus (mice [6]) was “did” and the ketamine-associated discriminative stimulus (mice [6]; listed as PCP) was “produced ketamine-like discriminative properties”.
